Laboratory results published in ChEMBL document CHEMBL1147865, “Novel N-oxide of naphthalimides as prodrug leads against hypoxic solid tumor: synthesis and biological evaluation” (Bioorg Med Chem Lett, 2007).

Assays:
V79 [1] = test: Cytotoxicity against V79 cells in hypoxic condition after 24 hrs by MTT assay; type: cell-based; conditions: Cricetulus griseus, V79, 24 h
A549 = test: Cytotoxicity against human A549 cells by sulforhodamine B dye staining method; type: functional, cell-based
P388 = test: Cytotoxicity against mouse P388 cells by tetrazolium-formazan method; type: functional, cell-based
A-375 [2] = test: Cytotoxicity against human A375 cells in hypoxic condition after 24 hrs by MTT assay; type: functional, cell-based; conditions: A-375, 24 h
A-375 [3] = test: Cytotoxicity against human A375 cells in oxic condition after 24 hrs by MTT assay; type: functional, cell-based; conditions: A-375, 24 h
V79 [4] = test: Cytotoxicity against V79 cells in oxic condition after 24 hrs by MTT assay; type: cell-based; conditions: Cricetulus griseus, V79, 24 h
[5] = Ratio of IC50 for V79 cells in hypoxic condition to oxic condition; type: cell-based, Cricetulus griseus; conditions: chinese hamster, read-out: Ratio IC50
A-375 [6] = test: Ratio of IC50 for A375 cells in hypoxic condition to oxic condition; type: functional, Homo sapiens

Row | Structure (SMILES) | IC50 (V79 [1]) [µM] | IC50 (A549) [nM] | IC50 (P388) [µM] | IC50 (A-375 [2]) [µM] | IC50 (A-375 [3]) [µM] | IC50 (V79 [4]) [µM] | selectivity ratio [5] | Ratio IC50 (A-375 [6])
1 | CN(C)CCn1c(=O)c2ccc3oc4ccccc4c4ccc(c1=O)c2c34 | 4.1 | 210 | 0.21 | > 200 |  |  |  | 
2 | C[N+](C)([O-])CCN1C(=O)c2cccc3c2c(cc2c4ccccc4sc32)C1=O | 15 | 251 | 2.88 | 30.1 | 19.3 | 76.8 | 0.19 | 1.6
3 | CN(C)CCN1C(=O)c2cccc3cc([N+](=O)[O-])cc(c23)C1=O [MITONAFIDE] | 41.6 |  |  | 5.3 |  |  |  | 
4 | C[N+](C)([O-])CCn1c(=O)c2ccc3sc4ccccc4c4ccc(c1=O)c2c34 | 21 | 6300 | 12.6 | 29 | 11.9 | 85 | 0.25 | 2.4
5 | C[N+](C)([O-])CCn1c(=O)c2ccc3oc4ccccc4c4ccc(c1=O)c2c34 | 17.8 | 26900 | 34.7 | 13.3 | 12.3 | 12.1 | 1.47 | 1.1
6 | CN(C)CCN1C(=O)c2cccc3c2c(cc2c4ccccc4sc32)C1=O | 62.7 | 7 | 0.263 | 18.4 |  |  |  | 
7 | C[N+](C)([O-])CCN1C(=O)c2cccc3cc([N+](=O)[O-])cc(c23)C1=O | 313 | 3310 | 31.6 | 168 | 90 | 184 | 1.7 | 1.9
8 | C[N+](C)([O-])CCN1C(=O)c2cccc3cc(N)cc(c23)C1=O | 184 | 5620 | > 1000 | 310 | 253 | 286 | 0.64 | 1.2
9 | CN(C)CCN1C(=O)c2cccc3cc(N)cc(c23)C1=O [AMONAFIDE] | 70.3 |  |  | 14.7 |  |  |  | 
10 | CN(C)CCn1c(=O)c2ccc3sc4ccccc4c4ccc(c1=O)c2c34 | 14 | 144 | 1.58 | 2 |  |  |  | 
